From EP4122499A1, “FIBROBLAST ACTIVATION PROTEIN INHIBITORS AND USE THEREOF” (3B Pharmaceuticals GmbH, priority 2021, dated 2023)

Experiments:
Human recombinant FAP = molecular target: T1, Human recombinant FAP (Homo sapiens, UniProt Q12884); assay: FRET-based FAP protease activity assay (human); type: biochemical; set-up: purchased R&D systems 3715-SE; conditions: FRET-peptide substrate, 37°C; for IC50: read-out: pIC50 (Activity) (converted)
T1 sequence (Q12884 1-760): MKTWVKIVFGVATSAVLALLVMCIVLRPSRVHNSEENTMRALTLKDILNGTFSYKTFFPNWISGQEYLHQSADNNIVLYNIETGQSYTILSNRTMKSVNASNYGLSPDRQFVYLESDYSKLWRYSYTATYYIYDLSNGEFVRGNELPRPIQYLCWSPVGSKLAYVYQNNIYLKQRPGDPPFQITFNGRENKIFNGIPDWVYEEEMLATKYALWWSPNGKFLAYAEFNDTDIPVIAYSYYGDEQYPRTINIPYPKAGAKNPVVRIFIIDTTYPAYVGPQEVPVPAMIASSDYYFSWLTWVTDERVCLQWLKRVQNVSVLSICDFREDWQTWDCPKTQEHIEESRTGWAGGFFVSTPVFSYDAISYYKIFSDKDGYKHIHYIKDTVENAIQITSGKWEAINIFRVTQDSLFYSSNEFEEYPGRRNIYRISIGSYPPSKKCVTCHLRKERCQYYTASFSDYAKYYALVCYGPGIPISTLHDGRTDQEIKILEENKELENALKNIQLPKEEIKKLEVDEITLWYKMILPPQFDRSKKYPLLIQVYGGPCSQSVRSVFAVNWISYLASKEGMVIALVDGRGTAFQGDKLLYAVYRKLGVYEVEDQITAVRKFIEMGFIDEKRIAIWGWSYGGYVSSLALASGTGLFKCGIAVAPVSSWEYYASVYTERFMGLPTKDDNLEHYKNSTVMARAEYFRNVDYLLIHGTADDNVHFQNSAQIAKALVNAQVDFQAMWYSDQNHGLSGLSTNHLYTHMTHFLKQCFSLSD
Procedure: In order to determine the inhibitory activity a FRET-based FAP protease activity assay was established.
25 µL of a 30 µM substrate solution, diluted in assay buffer, was added. […] Four parameter logistic (4PL) curve fitting and pIC50 calculations were performed using ActivityBase software (IDBS).

Recombinant human DPP4 = molecular target: T2, Recombinant human DPP4 (Homo sapiens, UniProt P27487); assay: DPP4 protease activity assay; type: biochemical; conditions: 20 µM GP-AMC substrate; for IC50: read-out: pIC50 (DPP4) (converted)
T2 construct: purchased R&D systems 9168-SE
T2 sequence (P27487 whole entry): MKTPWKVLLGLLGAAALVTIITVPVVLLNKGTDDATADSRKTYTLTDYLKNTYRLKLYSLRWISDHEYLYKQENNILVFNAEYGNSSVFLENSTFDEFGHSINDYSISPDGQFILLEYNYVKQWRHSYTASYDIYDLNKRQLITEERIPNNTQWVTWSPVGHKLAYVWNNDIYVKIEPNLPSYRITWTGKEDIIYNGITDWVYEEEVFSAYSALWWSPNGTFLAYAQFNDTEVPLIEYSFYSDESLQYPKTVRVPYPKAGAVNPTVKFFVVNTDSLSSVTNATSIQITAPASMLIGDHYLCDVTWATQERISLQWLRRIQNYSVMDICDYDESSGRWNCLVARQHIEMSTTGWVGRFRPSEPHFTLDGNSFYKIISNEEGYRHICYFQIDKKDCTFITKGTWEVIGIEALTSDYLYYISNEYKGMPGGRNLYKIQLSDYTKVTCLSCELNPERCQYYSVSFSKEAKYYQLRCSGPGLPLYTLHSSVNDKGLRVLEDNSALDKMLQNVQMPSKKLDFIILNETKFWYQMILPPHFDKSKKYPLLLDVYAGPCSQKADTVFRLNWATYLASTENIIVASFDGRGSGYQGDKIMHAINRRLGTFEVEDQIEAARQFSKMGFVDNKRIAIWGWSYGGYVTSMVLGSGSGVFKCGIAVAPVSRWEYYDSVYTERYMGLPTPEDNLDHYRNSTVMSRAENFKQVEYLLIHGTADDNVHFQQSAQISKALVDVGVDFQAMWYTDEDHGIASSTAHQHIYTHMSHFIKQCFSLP
Procedure: (§1) The PREP activity assay was performed using the FACS buffer (PBS including 1% FBS, Sigma-Aldrich, Cat# D8537). […] The DPP4 activity assay was performed in DPP assay buffer (25 mM Tris, pH 8.0).
(§2) Four parameter logistic (4PL) curve fitting and pIC50 calculations were performed using ActivityBase software.

[1] = molecular target: T3, FAP-expressing human WI-38 fibroblasts (Homo sapiens, UniProt Q12884); assay: Competitive FACS binding assay (displacement of Cy5-labeled FAP inhibitor 3BP-2935); conditions: 3 nM Cy5-labeled 3BP-2935, 4°C, 1 hour
T3 construct: FAP-expressing human WI-38 fibroblasts (ECACC 90020107) were cultured in EMEM; host or cells: WI-38 human fibroblasts
T3 sequence (Q12884 1-760): T1 sequence (Q12884 1-760)

recombinant human PREP = molecular target: T4, recombinant human PREP (Homo sapiens, UniProt P48147); assay: PREP protease activity assay; type: biochemical; conditions: 50 µM Z-GP-AMC substrate
T4 construct: purchased R&D systems 4308-SE
T4 sequence (P48147 1-710): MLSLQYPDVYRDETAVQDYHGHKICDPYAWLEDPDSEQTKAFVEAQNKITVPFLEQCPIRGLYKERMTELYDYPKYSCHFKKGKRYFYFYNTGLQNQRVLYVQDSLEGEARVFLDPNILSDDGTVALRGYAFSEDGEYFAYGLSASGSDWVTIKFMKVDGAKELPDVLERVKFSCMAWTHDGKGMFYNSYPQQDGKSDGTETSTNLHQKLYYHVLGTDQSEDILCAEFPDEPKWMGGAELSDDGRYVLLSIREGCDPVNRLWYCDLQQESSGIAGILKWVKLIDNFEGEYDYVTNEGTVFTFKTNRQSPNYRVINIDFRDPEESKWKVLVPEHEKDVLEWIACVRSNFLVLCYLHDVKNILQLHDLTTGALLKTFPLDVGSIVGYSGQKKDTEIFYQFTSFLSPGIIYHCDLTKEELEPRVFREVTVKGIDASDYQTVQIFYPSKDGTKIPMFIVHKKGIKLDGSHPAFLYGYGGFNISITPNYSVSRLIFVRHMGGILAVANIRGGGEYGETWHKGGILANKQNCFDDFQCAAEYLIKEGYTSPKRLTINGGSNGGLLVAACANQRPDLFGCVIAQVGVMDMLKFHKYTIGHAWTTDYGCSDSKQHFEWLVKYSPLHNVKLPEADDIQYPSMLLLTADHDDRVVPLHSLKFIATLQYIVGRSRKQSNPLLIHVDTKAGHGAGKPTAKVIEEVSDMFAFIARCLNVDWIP
Procedure: as §1, §2

Compound | IC50 (Human recombinant FAP) | IC50 (Recombinant human DPP4) | IC50 [1] | IC50 (recombinant human PREP) | pIC50 (Activity) (Human recombinant FAP) | pIC50 (DPP4) (Recombinant human DPP4) | pIC50 (FACS) [1] | pIC50 (PREP) (recombinant human PREP)
CS(=O)(=O)c1cccc(-c2ccc3nccc(C(=O)NCC(=O)N4CCC[C@H]4C#N)c3c2)c1 | 1 nM | > 1000 nM | 3.98 nM | > 1000 nM | – | – | – | –
CS(=O)(=O)c1cccc(-c2ccc3c(C(=O)NCC(=O)N4CCC[C@H]4C#N)ccnc3c2)c1 | 2 nM | > 1000 nM | 6.31 nM | > 1000 nM | – | – | – | –
O=C(NCC(=O)N1CCC[C@H]1C(=O)c1nc2ccccc2s1)c1ccnc2ccccc12 | 39.8 nM | > 1000 nM | 63.1 nM | 15.8 nM | – | – | – | –
O=C(NCC(=O)N1CCC[C@H]1C(=O)c1nc2ccccc2o1)c1ccnc2ccccc12 | 1.58 nM | > 1000 nM | 6.31 nM | 1 nM | – | – | – | –
O=C(NCC(=O)N1CCC[C@H]1C(=O)c1nccs1)c1ccnc2ccccc12 | 50.1 nM | > 1000 nM | 100 nM | 25.1 nM | – | – | – | –
CS(=O)(=O)c1ccc(-c2ccc3nccc(C(=O)NCC(=O)N4CC(F)(F)C[C@H]4C#N)c3c2)cc1 | 0.631 nM | > 1000 nM | 1 nM | > 1000 nM | – | – | – | –
CS(=O)(=O)c1ccc(-c2ccc3nccc(C(=O)NCC(=O)N4CCC[C@H]4C#N)c3c2)cc1 | 0.631 nM | > 1000 nM | 3.98 nM | > 1000 nM | – | – | – | –
O=C(O)CN1CCN(CC(=O)O)CCN(CC(=O)N2CCN(CCCOc3ccc4nccc(C(=O)NCC(=O)N5CC(F)(F)C[C@H]5C(=O)c5nc6ccccc6o5)c4c3)CC2)CCN(CC(=O)O)CC1 | – | – | – | – | 8.6 | <6 | 7.9 | 6.7
N#C[C@@H]1CC(F)(F)CN1C(=O)CNC(=O)c1ccnc2ccc(-c3ccc(S(=O)(=O)CCCNC(=O)CN4CCN(CC(=O)O)CCN(CC(=O)O)CCN(CC(=O)O)CC4)cc3)cc12 | – | – | – | – | 9.1 | 6.7 | 9.2 | <6
O=C(O)CN1CCN(CC(=O)O)CCN(CC(=O)NCCCNC(=O)c2ccc(-c3ccc4nccc(C(=O)NCC(=O)N5CCC[C@H]5C(=O)c5nc6ccccc6o5)c4c3)cc2)CCN(CC(=O)O)CC1 | – | – | – | – | 8.8 | <6 | 8.6 | 8.2
N#C[C@@H]1CC(F)(F)CN1C(=O)CNC(=O)c1cc[n+]([O-])c2ccc(OCCCN3CCN(C(=O)CN4CCN(CC(=O)O)CCN(CC(=O)O)CCN(CC(=O)O)CC4)CC3)cc12 | – | – | – | – | 9 | <6 | 8.5 | –
N#C[C@@H]1CC(F)(F)CN1C(=O)CNC(=O)c1ccnc2ccc(-c3ccc(C(=O)NCCCNC(=O)CN4CCN(CC(=O)O)CCN(CC(=O)O)CCN(CC(=O)O)CC4)cc3)cc12 | – | – | – | – | 9.2 | <6 | 8.9 | –
N#C[C@@H]1CC(F)(F)CN1C(=O)CNC(=O)c1ccnc2ccc(-c3ccc(C(=O)NCCN4CCN(C(=O)CN5CCN(CC(=O)O)CCN(CC(=O)O)CCN(CC(=O)O)CC5)CC4)cc3)cc12 | – | – | – | – | 9.1 | <6 | 8.7 | <6
CC(C)(C)c1nnc(C(=O)[C@@H]2CCCN2C(=O)CNC(=O)c2ccnc3ccccc23)o1 | 3.98 nM | > 1000 nM | 15.8 nM | 1.26 nM | – | – | – | –
N#C[C@@H]1CC(F)(F)CN1C(=O)CNC(=O)c1ccnc2ccc(-c3ccc(C(=O)NCCCNC(=O)CN4CCN(CC(=O)O)CCN(CC(=O)O)CCN(CC(=O)O)CC4)nc3)cc12 | – | – | – | – | 9.1 | <6 | 8.8 | <6
N#C[C@@H]1CCCN1C(=O)CNC(=O)c1ccnc2ccc(-c3ccc(C(=O)NCCCNC(=O)CN4CCN(CC(=O)O)CCN(CC(=O)O)CCN(CC(=O)O)CC4)cc3)cc12 | – | – | – | – | 9 | <6 | 8.7 | –
O=C(O)CN1CCN(CC(=O)O)CCN(CC(=O)NCCCNC(=O)c2ccc(-c3ccc4nccc(C(=O)NCC(=O)N5CCC[C@H]5B(O)O)c4c3)cc2)CCN(CC(=O)O)CC1 | – | – | – | – | 8.8 | <6 | 8.9 | 8.2
CS(=O)(=O)c1cccc(-c2ccc3nccc(C(=O)NCC(=O)N4CC(F)(F)C[C@H]4C#N)c3c2)c1 [drawing 288] | 0.631 nM | 794 nM | 1.58 nM | > 1000 nM | – | – | – | –
CS(=O)(=O)c1cccc(-c2ccc3c(C(=O)NCC(=O)N4CC(F)(F)C[C@H]4C#N)ccnc3c2)c1 [drawing 289] | 0.794 nM | > 1000 nM | 2 nM | > 1000 nM | – | – | – | –
CS(=O)(=O)c1ccc(-c2ccc3c(C(=O)NCC(=O)N4CCC[C@H]4C#N)ccnc3c2)cc1 [drawing 290] | 1.58 nM | > 1000 nM | 6.31 nM | 794 nM | – | – | – | –
O=C(NCC(=O)N1CCC[C@H]1C(=O)c1ncco1)c1ccnc2ccccc12 [drawing 297] | 6.31 nM | > 1000 nM | 12.6 nM | 0.631 nM | – | – | – | –
O=C(O)CN1CCN(CC(=O)O)CCN(CC(=O)N2CCN(CCNC(=O)c3cccc(-c4ccc5c(C(=O)NCC(=O)N6CCC[C@H]6C(=O)c6nc7ccccc7o6)ccnc5c4)c3)CC2)CCN(CC(=O)O)CC1 [drawing 352] | – | – | – | – | 8.7 | <6 | 8.4 | 8.4
O=C(O)CN1CCN(CC(=O)O)CCN(CC(=O)N2CCN(CCNC(=O)c3cccc(-c4ccc5nccc(C(=O)NCC(=O)N6CCC[C@H]6C(=O)c6nc7ccccc7o6)c5c4)c3)CC2)CCN(CC(=O)O)CC1 [drawing 353] | – | – | – | – | 8.6 | <6 | 8.5 | 7.8
